Assay results published in ChEMBL document CHEMBL5500372, “Novel natural osthole-inspired amphiphiles as membrane targeting antibacterials against methicillin-resistant Staphylococcus aureus (MRSA)” (Eur J Med Chem, 2024).
Values after ≈ are worked out from the molar mass of the structure shown.

Key:
Staphylococcus aureus [1] = test: Antibacterial activity against methicillin-resistant Staphylococcus aureus clinical isolate 11 measured after 18 hrs by CLSI based broth microdilution method; assay type: functional
Staphylococcus aureus [2] = test: Antibacterial activity against methicillin-resistant Staphylococcus aureus clinical isolate 17 measured after 18 hrs by CLSI based broth microdilution method; assay type: functional
Staphylococcus aureus [3] = test: Antibacterial activity against Staphylococcus aureus ATCC 29213 measured after 18 hrs by CLSI based broth microdilution method; assay type: functional
Staphylococcus aureus [4] = test: Antibacterial activity against methicillin-resistant Staphylococcus aureus clinical isolate 13 measured after 18 hrs by CLSI based broth microdilution method; assay type: functional
Staphylococcus aureus [5] = test: Antibacterial activity against methicillin-resistant Staphylococcus aureus clinical isolate 23 measured after 18 hrs by CLSI based broth microdilution method; assay type: functional
Staphylococcus aureus [6] = test: Antibacterial activity against methicillin-resistant Staphylococcus aureus clinical isolate 22 measured after 18 hrs by CLSI based broth microdilution method; assay type: functional
Staphylococcus aureus [7] = test: Antibacterial activity against methicillin-resistant Staphylococcus aureus clinical isolate 21 measured after 18 hrs by CLSI based broth microdilution method; assay type: functional
[8] = Selectivity index, ratio of HC50 for hemolytic activity in sheep erythrocyte assessed as hemolysis to MIC for antibacterial activity against Staphylococcus aureus ATCC 29213; assay type: toxicity; details: sheep erythrocytes, read-out: Selectivity Index
Staphylococcus aureus [9] = test: Antibacterial activity against methicillin-resistant Staphylococcus aureus clinical isolate 16 measured after 18 hrs by CLSI based broth microdilution method; assay type: functional
[10] = Hemolytic activity in sheep erythrocyte assessed as hemolysis incubated for 1 hr by absorbance based analysis; assay type: toxicity, cell-based, Ovis aries; details: sheep erythrocytes
Staphylococcus aureus [11] = test: Antibacterial activity against methicillin-resistant Staphylococcus aureus clinical isolate 14 measured after 18 hrs by CLSI based broth microdilution method; assay type: functional
Staphylococcus aureus [12] = test: Antibacterial activity against methicillin-resistant Staphylococcus aureus clinical isolate 20 measured after 18 hrs by CLSI based broth microdilution method; assay type: functional
Staphylococcus aureus [13] = test: Antibacterial activity against methicillin-resistant Staphylococcus aureus clinical isolate 12 measured after 18 hrs by CLSI based broth microdilution method; assay type: functional
Escherichia coli = test: Antibacterial activity against Escherichia coli ATCC 25922 measured after 18 hrs by CLSI based broth microdilution method; assay type: functional

Structure (SMILES) | MIC (Staphylococcus aureus [1]) | MIC (Staphylococcus aureus [2]) | MIC (Staphylococcus aureus [3]) | MIC (Staphylococcus aureus [4]) | MIC (Staphylococcus aureus [5]) | MIC (Staphylococcus aureus [6]) | MIC (Staphylococcus aureus [7]) | selectivity ratio [8] | MIC (Staphylococcus aureus [9]) | HC50 at 1 h [10] | MIC (Staphylococcus aureus [11]) | MIC (Staphylococcus aureus [12]) | MIC (Staphylococcus aureus [13]) | MIC (Escherichia coli)
CCCCCCNC(=O)C[N+](C)(C)CCCCOc1ccc2ccc(=O)oc2c1CC=C(C)C.[Br-] | 4 µg/mL | 4 µg/mL | 4 µg/mL | 4 µg/mL | 2 µg/mL | 4 µg/mL | 4 µg/mL | > 320 | 2 µg/mL | > 1280 µg/mL | 4 µg/mL | 4 µg/mL | 8 µg/mL | 64 µg/mL
CCCCCCNC(=O)C[N+](C)(C)CCCOc1ccc2ccc(=O)oc2c1CC=C(C)C.[Br-] | 4 µg/mL | 4 µg/mL | 4 µg/mL | 8 µg/mL | 4 µg/mL | 4 µg/mL | 4 µg/mL | > 320 | 4 µg/mL | > 1280 µg/mL | 4 µg/mL | 4 µg/mL | 8 µg/mL | 32 µg/mL
CCCCCNC(=O)C[N+](C)(C)CCCCOc1ccc2ccc(=O)oc2c1CC=C(C)C.[Br-] | 8 µg/mL | 8 µg/mL | 8 µg/mL | 16 µg/mL | 8 µg/mL | 8 µg/mL | 8 µg/mL | > 160 | 8 µg/mL | > 1280 µg/mL | 8 µg/mL | 8 µg/mL | 16 µg/mL | 64 µg/mL
CCN(CC)C(=O)C[N+](C)(C)CCCCOc1ccc2ccc(=O)oc2c1CC=C(C)C.[Br-] | 128 µg/mL | 64 µg/mL | 64 µg/mL | 128 µg/mL | 64 µg/mL | 64 µg/mL | 64 µg/mL | 19 | 64 µg/mL | 1220 µg/mL | 64 µg/mL | 64 µg/mL | 128 µg/mL | > 128 µg/mL
COc1ccc2ccc(=O)oc2c1CC=C(C)C [OSTHOLE] | > 64 µg/mL | 64 µg/mL (≈ 262 µM) | > 64 µg/mL | > 64 µg/mL | > 64 µg/mL | 64 µg/mL (≈ 262 µM) | > 64 µg/mL | – | 64 µg/mL (≈ 262 µM) | > 80 µg/mL | 64 µg/mL (≈ 262 µM) | 64 µg/mL (≈ 262 µM) | 64 µg/mL (≈ 262 µM) | > 64 µg/mL
CCNC(=O)C[N+](C)(C)CCCOc1ccc2ccc(=O)oc2c1CC=C(C)C.[Br-] | 128 µg/mL | 128 µg/mL | 128 µg/mL | 128 µg/mL | 128 µg/mL | 128 µg/mL | 128 µg/mL | > 5 | 128 µg/mL | > 640 µg/mL | 128 µg/mL | 128 µg/mL | 128 µg/mL | > 128 µg/mL
C[C@@H](O)[C@H]1C(=O)N2C(C(=O)O)=C(S[C@@H]3CN[C@H](C(=O)N(C)C)C3)[C@H](C)[C@H]12 [MEROPENEM] | – | – | – | – | – | – | – | – | – | – | – | – | – | 0.062 µg/mL (≈ 0.162 µM)
CCCN(CCC)C(=O)C[N+](C)(C)CCCCCOc1ccc2ccc(=O)oc2c1CC=C(C)C.[Br-] | 8 µg/mL | 8 µg/mL | 8 µg/mL | 8 µg/mL | 8 µg/mL | 4 µg/mL | 8 µg/mL | 97.4 | 8 µg/mL | 779 µg/mL | 8 µg/mL | 8 µg/mL | 16 µg/mL | 128 µg/mL
CCCCCNC(=O)C[N+](C)(C)CCCOc1ccc2ccc(=O)oc2c1CC=C(C)C.[Br-] | 16 µg/mL | 16 µg/mL | 16 µg/mL | 16 µg/mL | 8 µg/mL | 8 µg/mL | 8 µg/mL | 75.3 | 8 µg/mL | 1200 µg/mL | 16 µg/mL | 8 µg/mL | 16 µg/mL | 128 µg/mL
CCCCN(CCCC)C(=O)C[N+](C)(C)CCCCCOc1ccc2ccc(=O)oc2c1CC=C(C)C.[Br-] | 1 µg/mL | 1 µg/mL | 1 µg/mL | 2 µg/mL | 1 µg/mL | 1 µg/mL | 1 µg/mL | 989 | 1 µg/mL | 989 µg/mL | 1 µg/mL | 1 µg/mL | 2 µg/mL | 128 µg/mL
CC(C)=CCc1c(OCCCC[N+](C)(C)CC(=O)N(C(C)C)C(C)C)ccc2ccc(=O)oc12.[Br-] | 16 µg/mL | 16 µg/mL | 16 µg/mL | 32 µg/mL | 16 µg/mL | 16 µg/mL | 16 µg/mL | 79.2 | 16 µg/mL | 1270 µg/mL | 16 µg/mL | 16 µg/mL | 32 µg/mL | 128 µg/mL
CCNC(=O)C[N+](C)(C)CCCCCOc1ccc2ccc(=O)oc2c1CC=C(C)C.[Br-] | 64 µg/mL | 64 µg/mL | 64 µg/mL | 64 µg/mL | 32 µg/mL | 32 µg/mL | 64 µg/mL | > 20 | 32 µg/mL | > 1280 µg/mL | 32 µg/mL | 64 µg/mL | 64 µg/mL | > 128 µg/mL
CCCN(CCC)C(=O)C[N+](C)(C)CCCCOc1ccc2ccc(=O)oc2c1CC=C(C)C.[Br-] | 16 µg/mL | 16 µg/mL | 16 µg/mL | 32 µg/mL | 16 µg/mL | 16 µg/mL | 16 µg/mL | > 80 | 16 µg/mL | > 1280 µg/mL | 16 µg/mL | 32 µg/mL | 32 µg/mL | > 128 µg/mL
CCCCNC(=O)C[N+](C)(C)CCCCCOc1ccc2ccc(=O)oc2c1CC=C(C)C.[Br-] | 8 µg/mL | 8 µg/mL | 8 µg/mL | 8 µg/mL | 8 µg/mL | 8 µg/mL | 8 µg/mL | 99.8 | 8 µg/mL | 798 µg/mL | 8 µg/mL | 8 µg/mL | 16 µg/mL | 128 µg/mL
CCCNC(=O)C[N+](C)(C)CCCCOc1ccc2ccc(=O)oc2c1CC=C(C)C.[Br-] | 64 µg/mL | 64 µg/mL | 64 µg/mL | 64 µg/mL | 64 µg/mL | 64 µg/mL | 64 µg/mL | > 20 | 32 µg/mL | > 1280 µg/mL | 32 µg/mL | 64 µg/mL | 64 µg/mL | 128 µg/mL
CCCCNC(=O)C[N+](C)(C)CCCCOc1ccc2ccc(=O)oc2c1CC=C(C)C.[Br-] | 16 µg/mL | 16 µg/mL | 32 µg/mL | 32 µg/mL | 16 µg/mL | 16 µg/mL | 16 µg/mL | > 40 | 16 µg/mL | > 1280 µg/mL | 16 µg/mL | 16 µg/mL | 32 µg/mL | 128 µg/mL
CCNC(=O)C[N+](C)(C)CCCCOc1ccc2ccc(=O)oc2c1CC=C(C)C.[Br-] | 128 µg/mL | 128 µg/mL | 128 µg/mL | 128 µg/mL | 128 µg/mL | 128 µg/mL | 128 µg/mL | > 10 | 128 µg/mL | > 1280 µg/mL | 128 µg/mL | 64 µg/mL | 128 µg/mL | 128 µg/mL
CCCCCNC(=O)C[N+](C)(C)CCCCCOc1ccc2ccc(=O)oc2c1CC=C(C)C.[Br-] | 4 µg/mL | 4 µg/mL | 4 µg/mL | 4 µg/mL | 2 µg/mL | 2 µg/mL | 2 µg/mL | > 320 | 2 µg/mL | > 1280 µg/mL | 2 µg/mL | 64 µg/mL | 4 µg/mL | 64 µg/mL
CCCNC(=O)C[N+](C)(C)CCCCCOc1ccc2ccc(=O)oc2c1CC=C(C)C.[Br-] | 32 µg/mL | 32 µg/mL | 32 µg/mL | 32 µg/mL | 32 µg/mL | 32 µg/mL | 32 µg/mL | 35.8 | 16 µg/mL | 1140 µg/mL | 16 µg/mL | 32 µg/mL | 32 µg/mL | 128 µg/mL
CCN(CC)C(=O)C[N+](C)(C)CCCOc1ccc2ccc(=O)oc2c1CC=C(C)C.[Br-] | 128 µg/mL | 128 µg/mL | 128 µg/mL | 128 µg/mL | 128 µg/mL | 128 µg/mL | 128 µg/mL | > 10 | 128 µg/mL | > 1280 µg/mL | 128 µg/mL | 128 µg/mL | 128 µg/mL | 128 µg/mL
CCCCNC(=O)C[N+](C)(C)CCCOc1ccc2ccc(=O)oc2c1CC=C(C)C.[Br-] | 64 µg/mL | 32 µg/mL | 32 µg/mL | 32 µg/mL | 32 µg/mL | 32 µg/mL | 32 µg/mL | > 40 | 32 µg/mL | > 1280 µg/mL | 32 µg/mL | 64 µg/mL | 64 µg/mL | 128 µg/mL
